From patent US9758485B2, “Compounds for controlling arthropods” (priority 2013, dated 2017)

Tests used:
Ctenocephalides felis = Ctenocephalides felis - oral test; assay type: in vivo; settings: Ctenocephalides felis, po, 48 h; application rate 100 ppm in citrated cattle blood; adult fleas; kill after 2 days; read-out: efficacy
Summary of the method: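 DMSO stock, diluted in citrated cattle blood; ~20 unfed adult fleas feed through parafilm; % kill read at day 2 (0% = none killed).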

Rhipicephalus sanguineus = Rhipicephalus sanguineus - in vitro contact tests with adult brown dog ticks; assay type: in vivo; settings: application rate 5 μg/cm^2, after 48 h (dead or moribund)
Summary of the method: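 Test compound was dissolved in acetone p.a. (9 mg in 1 ml, then diluted), and 250 μl were spread evenly over the inner surface of 25 ml test tubes on an orbital shaker at 30 rpm for 2 h. Once the solvent evaporated, 5-10 adult Rhipicephalus sanguineus ticks were sealed in, kept dark at room temperature, and after 48 h placed on a 45-50° C. hotplate to score dead or moribund ticks.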

Cc1cc(C(F)(C(F)(F)F)C(F)(F)F)cc(C)c1-n1cc(-c2ccc(Cl)c(C(=O)NC3CC3)c2)cn1 [I-T3-1, 2-chloro-N-cyclopropyl-5-[1-[2,6-dimethyl-4-[1,2,2,2-tetrafluoro-1-(trifluoromethyl)ethyl]phenyl]pyrazol-4-yl]benzamide]
pest or weed control at 100 ppm (Ctenocephalides felis): 100% | efficacy (Rhipicephalus sanguineus): 100%
